Measured values published in patent US8551966B2, “Chemical compounds” (priority 2011, dated 2013).
Like-named read-outs stand apart in the source and are kept apart here.

Experiments:
[1] = tested on: recombinant vaccinia virus strain WR (VACV-WR) 'v3' expressing firefly luciferase, in RK13 cells; test: microbe, parasite or virus in culture; assay type: cell-based; details: for activity at 10 µM: Orthopoxvirus vaccinia, RK-13, 2 h, read-out: VV % activity at 10 μM (a)
[2] = tested on: wildtype measles virus strain WTFb in B95a marmoset B lymphocytes; test: Measles syncytium reduction assay; assay type: cell-based; details: for Measles IC100/μM (b): concentration giving total suppression of syncytia formation, B95a cells, 50 syncytium forming units per well; for potency with respect to measles virus: statement in words on Table I data
VACV-WR in BSC-1 cells = test: microbe, parasite or virus in culture; assay type: cell-based, vaccinia virus; details: read-out: VV plaque size IC50 μM (c)

Row | SMILES | activity at 10 µM [1] | also measured
1 | CCCCCOCCCCCCCCCc1cc2cn([C@H]3CC[C@@H](CO)O3)c(=O)nc2o1 [Cf 2095, reference compound] |  | VV % activity at 10 μM (a) [1]: 75%; Measles IC100/μM (b) [2]: Inactive; potency with respect to measles virus [2]: inactive; IC50 (VACV-WR in BSC-1 cells): 1.5 µM
2 | CCCCCCc1cc2cn([C@@H]3CC[C@H](CO)O3)c(=O)nc2o1 [Cf 3153, 3-(2′,3′-dideoxy-ribo-β-L-furanosyl)-6-hexylfuro[2,3-d]pyrimidin-2(3H)-one] | 50% | 
3 | CCCCCCCCc1cc2cn([C@@H]3CC[C@H](CO)O3)c(=O)nc2o1 [Cf 3154, 3-(2′,3′-dideoxy-ribo-β-L-furanosyl)-6-octylfuro[2,3-d]pyrimidin-2(3H)-one] | 23% | potency with respect to vaccinia virus compared to comparative compound Cf2095 [1]: greatly enhanced potency
4 | CCCCCCCCCCc1cc2cn([C@@H]3CC[C@H](CO)O3)c(=O)nc2o1 [Cf 3155, 3-(2′,3′-dideoxy-ribo-β-Lfuranosyl)-6-decylfuro[2,3-d]pyrimidin-2(3H)-one] | 24% | potency with respect to vaccinia virus compared to comparative compound Cf2095 [1]: greatly enhanced potency
5 | CCCCCCCCCCCCc1cc2cn([C@@H]3CC[C@H](CO)O3)c(=O)nc2o1 [Cf 3156, 3-(2′,3′-dideoxy-ribo-β-L-furanosyl)-6-dodecylfuro[2,3-d]-pyrimidin-2(3H)-one] | 65% | 
6 | CCCCCCCc1cc2cn([C@@H]3CC[C@H](CO)O3)c(=O)nc2o1 [Cf 3174, 3-(2′,3′-dideoxy-ribo-β-L-furanosyl)-6-septylfuro[2,3-d]pyrimidin-2(3H)-one] | 41% | 
7 | CCCCCCCCCc1cc2cn([C@@H]3CC[C@H](CO)O3)c(=O)nc2o1 [Cf 3175, 3-(2′,3′-dideoxy-ribo+L-furanosyl)-6-nonylfuro[2,3-d]pyrimidin-2(3H)-one] | 24% | potency with respect to vaccinia virus compared to comparative compound Cf2095 [1]: greatly enhanced potency; Measles IC100/μM (b) [2]: 5 to 10 µM
8 | CCCCc1ccc(-c2cc3cn([C@@H]4CC[C@H](CO)O4)c(=O)nc3o2)cc1 [Cf 3176, 3-(2′,3′-dideoxy-ribo-β-L-furanosyl)-6-(4-n-butylphenyl)[2,3-d]pyrimidin-2(3H)-one] | 44% | 
9 | CCCCCc1ccc(-c2cc3cn([C@@H]4CC[C@H](CO)O4)c(=O)nc3o2)cc1 [Cf 3177, 3-(2′,3′-dideoxy-ribo-D-L-furanosyl)-6-(4-n-pentylphenyl) [2,3-d]pyrimidin-2(3H)-one] | 47% | 
10 | CCCOCCCCCCCCCc1cc2cn([C@@H]3CC[C@H](CO)O3)c(=O)nc2o1 [Cf 3204, 3-(2′,3′-dideoxy-ribo-β-L-furanosyl)-6-propyloxynonylfuro[2,3-d]pyrimidin-2(3H)-one] | 41% | 
11 | CCCCOCCCCCCCCCc1cc2cn([C@@H]3CC[C@H](CO)O3)c(=O)nc2o1 [Cf 3207, 3-(2′,3′-dideoxy-ribo-β-L-furanosyl)-6-butyloxynonylfuro[2,3-d]pyrimidin-2(3H)-one] | 29% | 
12 | CCCCCOCCCCCCCCCc1cc2cn([C@@H]3CC[C@H](CO)O3)c(=O)nc2o1 [Cf 3208, 3-(2′,3′-dideoxy-ribo-β-L-furanosyl)-6-pentyloxynonylfuro[2,3-d]pyrimidin-2(3H)-one] | 24% | potency with respect to vaccinia virus compared to comparative compound Cf2095 [1]: greatly enhanced potency; Measles IC100/μM (b) [2]: 1 to 5 µM; potency with respect to measles virus [2]: significant potency; IC50 (VACV-WR in BSC-1 cells; Orthopoxvirus vaccinia, BSC-1, 72 h): 0.1 µM
13 | CCCCCCOCCCCCCCCCc1cc2cn([C@@H]3CC[C@H](CO)O3)c(=O)nc2o1 [Cf 3209, 3-(2′,3′-dideoxy-ribo-β-L-furanosyl)-6-hexyloxynonylfuro[2,3-d]pyrimidin-2(3H)-one] | 46% | 
14 | CCOCCCCCCCCCc1cc2cn([C@@H]3CC[C@H](CO)O3)c(=O)nc2o1 [Cf 3210, 3-(2′,3′-dideoxy-ribo-O-L-furanosyl)-6-ethyloxynonylfuro[2,3-d]pyrimidin 2(3H)-one] | 72% | 
15 | CCCCCCOCCCCCCCCc1cc2cn([C@@H]3CC[C@H](CO)O3)c(=O)nc2o1 [Cf 3230, 3-(2′,3′-dideoxy-ribo-β-L-furanosyl)-6-hexyloxyoctylfuro[2,3-d]pyrimidin-2(3H)-one] | 29% | 
16 | CCCCCCCCCCOCCCCc1cc2cn([C@@H]3CC[C@H](CO)O3)c(=O)nc2o1 [Cf 3231, 3-(2′,3′-dideoxy-ribo-β-L-furanosyl)-6-decyloxybutylfuro[2,3-d]pyrimidin-2(3H)-one] | 26% | 
17 | CCCCCCCCCCCCCOCc1cc2cn([C@@H]3CC[C@H](CO)O3)c(=O)nc2o1 [Cf 3232, 3-(2′,3′-dideoxy-ribo-β-L-furanosyl)-6-tridecyloxymethylfuro[2,3-d]pyrimidin-2(3H)-one] | 45% | Measles IC100/μM (b) [2]: 1 to 5 µM; potency with respect to measles virus [2]: significant potency
18 | CCCCCOCCCCCCCCCc1cc2cn([C@@H]3CC[C@H](CO)O3)c(=O)nc2n1C [Cf 3242, 3-(2′,3′-dideoxy-ribo-β-L-furanosyl)-6-pentyloxynonyl-N-methyl-pyrrolo[2,3-d]pyrimidin-2(3H)-one] | 15% | potency with respect to vaccinia virus compared to comparative compound Cf2095 [1]: greatly enhanced potency; Measles IC100/μM (b) [2]: 5 to 10 µM
19 | CCCCCOCCCCCCCCCc1cc2cn([C@@H]3CC[C@H](CO)O3)c(=O)nc2[nH]1 [Cf 3253, 3-(2′,3′-dideoxy-ribo-β-L-furanosyl)-6-pentyloxynonyl-pyrrolo[2,3-d]pyrimidin-2(3H)-one] | 52% | 
20 | COCCCCCCCCCCCCCc1cc2cn([C@@H]3CC[C@H](CO)O3)c(=O)nc2o1 [Cf 3254, 3-(2′,3′-dideoxy-ribo-β-L-furanosyl)-6-methyloxytridecylfuro[2,3-d]pyrimidin-2(3H)-one] | 59% | 
